Test results published in patent publication US20260042731A1, “(2,4-DICHLOROPHENOXY)ACETIC ACID ANALOGS” (CORTEVA AGRISCIENCE LLC, priority 2022, published 2026).
Read-outs that look alike come from different tables or passages of the source.

How the values were obtained:
[1] = system: Amaranthus rudis (AMATA), tall water hemp; test: Postemergence herbicide evaluation, growth of Amaranthus rudis (AMATA); format: in vivo; conditions: Amaranthus tuberculatus, post-emergence, read-out: Ave. AMATA
[2] = system: Ambrosia artemisiifolia (AMBEL), common ragweed; test: Postemergence herbicide evaluation, growth of Ambrosia artemisiifolia (AMBEL); format: in vivo; conditions: Ambrosia artemisiifolia, post-emergence, read-out: AVE. AMBEL
[3] = system: Abutilon theophrasti (ABUTH), velvetleaf; test: Postemergence herbicide evaluation, growth of Abutilon theophrasti (ABUTH); format: in vivo; conditions: Abutilon theophrasti, post-emergence, read-out: AVE. ABUTH
[4] = system: Chenopodium album (CHEAL), common lambsquarters; test: Postemergence herbicide evaluation, growth of Chenopodium album (CHEAL); format: in vivo; conditions: Chenopodium album, post-emergence, read-out: Ave. CHEAL
[5] = system: glyphosate resistant Conyza canadensis (L.) (ERICA), horseweed; test: Postemergence herbicide evaluation, growth of Conyza canadensis (ERICA); format: in vivo; conditions: Erigeron canadensis, post-emergence, read-out: Ave. ERICA
[6] = Volatility of compounds measured by thermogravimetric analysis (TGA); format: physicochemical
[7] = system: weeds (ABUTH, AMATA, AMBEL, CHEAL, ERICA); test: Postemergence herbicide evaluation, overall average % weed control across ABUTH, AMATA, AMBEL, CHEAL, ERICA; format: in vivo; conditions: post-emergence, average over the five weeds, read-out: Overall Ave % Weed Control; for pest or weed control at 280 g/ha: 280 g ae/ha; for pest or weed control at 560 g/ha: 560 g ae/ha
[8] = 168 h, 280 g ae/ha, 7 DAA, percent reduction in plant size relative to untreated control
[9] = 168 h, 560 g ae/ha, 7 DAA, percent reduction in plant size relative to untreated control
[10] = 336 h, 280 g ae/ha, 14 DAA, percent reduction in plant size relative to untreated control
[11] = 336 h, 560 g ae/ha, 14 DAA, percent reduction in plant size relative to untreated control
[12] = 504 h, 280 g ae/ha, 21 DAA, percent reduction in plant size relative to untreated control
[13] = 504 h, 560 g ae/ha, 21 DAA, percent reduction in plant size relative to untreated control

N/C(=N\OC(=O)COc1ccc(Cl)cc1Cl)c1ccc(/C(N)=N/OC(=O)COc2ccc(Cl)cc2Cl)cc1 [Compound B5, (1,4)—N°1, N°4-Bis(2-(2,4-dichlorophenoxy)acetoxy)terephthalimidamide]
pest or weed control at 280 g/ha [1, 8]: 25%
pest or weed control at 560 g/ha [1, 9]: 25%
pest or weed control at 280 g/ha [1, 10]: 0%
pest or weed control at 560 g/ha [1, 11]: 18%
pest or weed control at 280 g/ha [1, 12]: 15%
pest or weed control at 560 g/ha [1, 13]: 33%
pest or weed control at 280 g/ha [2, 8]: 18%
pest or weed control at 560 g/ha [2, 9]: 15%
pest or weed control at 280 g/ha [2, 10]: 8%
pest or weed control at 560 g/ha [2, 11]: 15%
pest or weed control at 280 g/ha [2, 12]: 5%
pest or weed control at 560 g/ha [2, 13]: 18%
pest or weed control at 280 g/ha [3, 8]: 0%
pest or weed control at 560 g/ha [3, 9]: 3%
pest or weed control at 280 g/ha [3, 10]: 10%
pest or weed control at 560 g/ha [3, 11]: 3%
pest or weed control at 280 g/ha [3, 12]: 10%
pest or weed control at 560 g/ha [3, 13]: 0%
pest or weed control at 280 g/ha [4, 8]: 15%
pest or weed control at 560 g/ha [4, 9]: 13%
pest or weed control at 280 g/ha [4, 10]: 20%
pest or weed control at 560 g/ha [4, 11]: 15%
pest or weed control at 280 g/ha [4, 12]: 40%
pest or weed control at 560 g/ha [4, 13]: 13%
pest or weed control at 280 g/ha [5, 8]: 5%
pest or weed control at 560 g/ha [5, 9]: 25%
pest or weed control at 280 g/ha [5, 10]: 30%
pest or weed control at 560 g/ha [5, 11]: 35%
pest or weed control at 280 g/ha [5, 12]: 15%
pest or weed control at 560 g/ha [5, 13]: 28%
TGA Data (rate of weight loss, volatility) [6]: 0.1 µg/min
pest or weed control at 280 g/ha ([7]; 168 h, 7 DAA): 13%
pest or weed control at 560 g/ha ([7]; 168 h, 7 DAA): 16%
pest or weed control at 280 g/ha ([7]; 336 h, 14 DAA): 14%
pest or weed control at 560 g/ha ([7]; 336 h, 14 DAA): 17%
pest or weed control at 280 g/ha ([7]; 504 h, 21 DAA): 17%
pest or weed control at 560 g/ha ([7]; 504 h, 21 DAA): 18%

O=C(COc1ccc(Cl)cc1Cl)OCOC(=O)c1ccccc1 [Compound E7, (2-(2,4-Dichlorophenoxy)acetoxy)methyl benzoate]
pest or weed control at 280 g/ha ([1]; 168 h): 78%
pest or weed control at 560 g/ha ([1]; 168 h): 80%
pest or weed control at 280 g/ha ([1]; 336 h): 95%
pest or weed control at 560 g/ha ([1]; 336 h): 85%
pest or weed control at 280 g/ha ([1]; 504 h): 93%
pest or weed control at 560 g/ha ([1]; 504 h): 89%
pest or weed control at 280 g/ha ([2]; 168 h): 63%
pest or weed control at 560 g/ha ([2]; 168 h): 78%
pest or weed control at 280 g/ha ([2]; 336 h): 93%
pest or weed control at 560 g/ha ([2]; 336 h): 97%
pest or weed control at 280 g/ha ([2]; 504 h): 96%
pest or weed control at 560 g/ha ([2]; 504 h): 100%
pest or weed control at 280 g/ha ([3]; 168 h): 80%
pest or weed control at 560 g/ha ([3]; 168 h): 85%
pest or weed control at 280 g/ha ([3]; 336 h): 84%
pest or weed control at 560 g/ha ([3]; 336 h): 89%
pest or weed control at 280 g/ha ([3]; 504 h): 90%
pest or weed control at 560 g/ha ([3]; 504 h): 92%
pest or weed control at 280 g/ha ([4]; 168 h): 68%
pest or weed control at 560 g/ha ([4]; 168 h): 75%
pest or weed control at 280 g/ha ([4]; 336 h): 73%
pest or weed control at 560 g/ha ([4]; 336 h): 93%
pest or weed control at 280 g/ha ([4]; 504 h): 70%
pest or weed control at 560 g/ha ([4]; 504 h): 70%
pest or weed control at 280 g/ha ([5]; 168 h): 65%
pest or weed control at 560 g/ha ([5]; 168 h): 70%
pest or weed control at 280 g/ha ([5]; 336 h): 83%
pest or weed control at 560 g/ha ([5]; 336 h): 88%
pest or weed control at 280 g/ha ([5]; 504 h): 93%
pest or weed control at 560 g/ha ([5]; 504 h): 95%
TGA Data (rate of weight loss, volatility) [6]: 1.5 µg/min
pest or weed control at 280 g/ha ([7]; 168 h, 7 DAA): 71%
pest or weed control at 560 g/ha ([7]; 168 h, 7 DAA): 78%
pest or weed control at 280 g/ha ([7]; 336 h, 14 DAA): 85%
pest or weed control at 560 g/ha ([7]; 336 h, 14 DAA): 90%
pest or weed control at 280 g/ha ([7]; 504 h, 21 DAA): 88%
pest or weed control at 560 g/ha ([7]; 504 h, 21 DAA): 89%
